Reference: patent US8410152B2 (Max-Planck-Gesellschaft zur Forderung der Wissenschaften e. …, priority 2006, dated 2013)
Like-named read-outs stand apart in the source and are kept apart here.

What was measured:
N2a/K18ΔK280 cells = assay: Tau aggregation and inhibition assay in cells (ThS staining); format: cell-based; details: for inhibition at 10 µM: 120 h, read-out: Inhibition in cells; for Inhibition in cells (result in words: cytotoxicity): compound 10 μM
Experimental: Selection of an N2a, Tet-On, G418-resistant cell line: N2a cells were cotransfected with both the pUHD172-1 plasmid (encoding the rtTA, obtained from H. Bujard, Heidelberg) and pEU-1 plasmid (encoding G418 resistance, a derivative of pRc/CMV, Invitrogen) (ratio 20:1; 1 μg/well of 6-well plates) using the DOTAP transfection reagent (Roche, Basel, CH). The cells were cultured in Eagle's Minimum Essential Medium (MEM) supplemented with 10% defined fetal bovine serum and subjected to G418 (600 μg/ml) and selection. The cells were fed with fresh media every 4 days for 3-4 weeks when single colonies appeared. Clones were tested for the induction level by transient transfection of pUHG 16-3 plasmid and the induction of β-galactosidase was measured.
Generation of inducible Tet-On cell lines: The DNA fragments encoding the appropriate tau constructs (K18WT, K18ΔK280, K18/ΔK280/PP) were inserted into the bidirectional vector pBI-5 between ClaI and SalI restriction sites (pBI-5 is an unpublished derivative of pBI-2, Baron et al., 1995). The pBI-5/K18-derived plasmids with pX343 (plasmid encoding the hygromycin resistance) were used for cotransfection of N2a/Tet-On, G418-resistant cells with the aid of DOTAP (20:1 plasmid ratio; 1 μg/well of 6-well plates). The cells were seeded at 4×10^5 cells per well. On the following day cells were transferred to 100-mm dishes and selected with 100 μg/ml of hygromycin and 600 μg/ml of G418. Clonal cell lines were screened for the inducible expression of K18 derivatives by measuring luciferase activity with the luciferase assay and immunofluorescence for tau protein with the polyclonal pan-tau antibody K9JA.
Induction of K18-derivatives in Tet-On N2a cells: The inducible N2a/K18-derivatives cells were cultured in MEM medium supplemented with 10% fetal calf serum, 2 mM glutamine and 0.1% nonessential amino acids. The expression of K18 constructs was induced by adding 1 μg doxycyclin (Dox) per 1 ml medium. The induction was continued for 7-11 days, the medium was changed 3 times (always complemented with doxycyclin). For tau solubility assays the cells were collected by pelleting during centrifugation at 1000×g for 5 min. The levels and solubility of tau K18/ΔK280 were determined following Greenberg and Davies (1990). The cells were homogenized (DIAX900, Heidolph, Schwabach, Germany) in 10 vol (w/v) of buffer consisting of 10 mM Tris-HCl (pH 7.4), 0.8 M NaCl, 1 mM EGTA, and 10% sucrose. The homogenate was spun for 20 min at 20000×g, and the supernatant was retained. The pellet was re-homogenized in 5 vol of homogenization buffer and re-centrifuged. Both supernatants were combined, brought to 1% N-laurylsarkosinate (w/v) and incubated for 1 hr at room temperature while shaking, followed by centrifugation at 100 000×g for 1 hr. The sarkosyl-insoluble pellets were resuspended in 50 mM Tris-HCl (pH 7.4), 0.5 ml per 1 g of starting material. The supernatant and sarkosyl-insoluble pellet samples were analyzed by Western blotting. The amount of material loaded for supernatant and sarkosyl-insoluble pellet represented about 0.5% and 15% of the total material present in the supernatant and pellet respectively (the ratio between supernatant and sarkosyl insoluble pellet was always 1:30). For quantification of tau levels in each fraction, the Western blots were probed with pan-tau antibody K9JA and analyzed by densitometry (LAS 3000 and AIDA software, Raytest, Straubenhardt, Germany).
Quantitation of tau aggregation in cells by Thioflavin S (ThS) staining: Tet-On inducible undifferentiated N2a cells were treated with 1 μg/ml doxycyclin for 5, 7 or 9 days in a culture dish. After that the cells were trypsinized and transferred to coverslips and incubated overnight. The cells on the coverslips were fixed with 4% paraformaldehyde in PBS for 15 min, then permeabilized with 80% MeOH for 6 min at −20° C., and incubated with 0.1% Thioflavin S for 5 min and washed three times in ethanol (50%). […]

uninduced N2A cells = format: cell-based; details: cell death as percent of LDH released into medium vs total LDH, compound 10 μM
Experimental: Neurotoxicity assay: Neurotoxicity was assessed using an LDH (lactate dehydrogenase) assay kit (Roche, Mannheim, Germany) according to the manufacturer's specifications. In the viability assay the aggregation inhibitor compound was added at a final concentration of 10 μM to uninduced N2A cells. The activity of LDH was measured spectrophotometrically at 492 nm. Cell death was calculated as percent of LDH released into medium, compared to total LDH obtained after total cell lysis.

tau construct K18 = tau construct K18 (Homo sapiens, UniProt P10636); assay: STD-NMR determination of dissociation constant; format: binding; details: STD-NMR titration data for proton I, 10 μM soluble K18, PBS/D2O, 295 K; read-out: KD of K18-BSc3094 complex
Sequence of tau construct K18 (P10636 with tags, fused parts or gaps isoform P10636-8 limits assumed): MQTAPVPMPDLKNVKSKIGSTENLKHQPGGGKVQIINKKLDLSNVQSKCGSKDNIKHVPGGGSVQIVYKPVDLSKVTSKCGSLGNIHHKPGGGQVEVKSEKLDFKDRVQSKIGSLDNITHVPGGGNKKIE
Experimental: STD-NMR: All STD NMR experiments were made in 3 mm Match® tubes in a 700 MHz spectrometer with cryogenic probe head at 295 K. The quantity of protein was kept small by the small diameter of the sample tubes. The spectra were measured with a spectral width of 11.0208 ppm and 32k data points with application of the WATERGATE water suppression (w5-sequence). The suppression of the protein resonances was reached by a spin lock pulse with a length of 15 ms and a attenuation of 11 dB. We used a pulse program in which the presaturation was accomplished alternating after each scan for the on and off resonance experiment at the selected frequencies. Thus artefacts are prevented during the difference formation due to in homogeneities. As point of irradiation for the on resonance experiments we selected 540 Hz (0.77 ppm). As point of irradiating for the off resonance experiments 40,000 Hz (57.1 ppm) was selected. The saturation duration in all experiments was 4 seconds, the attenuation of the saturation power 45 dB. 2044 scans were collected per experiment. After phase correction the FID was multiplied by an exponential function to improve the signal to noise ratio, which caused a line broadening of 1 Hz.
For the determination of the dissociation constant a sample with 10 μM soluble K18 and 80 μM DTT-d6 in 200 μL PBS/D2O was prepared. […]

tau construct K19 = tau construct K19 (Homo sapiens, UniProt P10636); assay: Thioflavine S (ThS) assay for aggregation of tau; format: biochemical
Sequence of tau construct K19 (P10636 with tags, fused parts or gaps isoform P10636-2 limits assumed): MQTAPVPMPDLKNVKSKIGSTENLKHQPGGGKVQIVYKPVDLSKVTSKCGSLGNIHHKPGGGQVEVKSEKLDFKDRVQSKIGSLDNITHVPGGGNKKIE
Experimental: Thioflavine S (ThS) Assay for aggregation of tau: 10 μM of the tau construct K19 were incubated with compounds in a concentration range from 1 nM up to 200 μM in the presence of 2.5 μM heparin in 50 mM NH4Ac buffer over night at 37° C. After addition of 20 μM ThS the signal was measured at 521 nm (emission) at an excitation wavelength of 440 nm. The results of this assay are presented in the IC50 column and DC50 column of Table 1 below.

[1] = N2a/K18ΔK280 cells, compound 10 μM with doxycyclin, 5 days, ThS-positive cells scored
[2] = 10 μM tau construct K19, 2.5 μM heparin, ThS fluorescence, read-out: DC50
[3] = 10 μM tau construct K19, 2.5 μM heparin, over night at 37° C., ThS fluorescence, read-out: ID50 (the source's name)
[4] = 10 μM tau construct K19, 2.5 μM heparin, ThS fluorescence

Row | Kd (tau construct K18) | DC50 (tau construct K19; [2]) | IC50 (tau construct K19; [3]) | SMILES | inhibition at 10 µM (N2a/K18ΔK280 cells; [1]) | LDH (uninduced N2A cells) | inhibition at 10 µM (N2a/K18ΔK280 cells) | IC50 (tau construct K19) | DC50 (tau construct K19; [4]) | Inhibition in cells (result in words: cytotoxicity) (N2a/K18ΔK280 cells; N2a/K18ΔK280 cells, 5 days)
1 | 62 ± 12 µM | 0.7 µM | 1.6 µM | O=C(NNc1nc(-c2ccc([N+](=O)[O-])cc2)cs1)c1ccc2[nH]cnc2c1 [Comp. 8, N′-[4-(4-Nitrophenyl)-1,3-thiazol-2-yl]-1H-benzimidazole-5-carbohydrazide] | 82.2% | 5.2% | – | – | – | –
2 | – | – | – | COc1cc(-c2csc(NNC(=O)c3cc4ccccc4[nH]3)n2)cc(OC)c1O [Comp. 53, N′-[4-(4-hydroxy-3,5-dimethoxyphenyl)-1,3-thiazol-2-yl]-1H-indole-2-carbohydrazide] | – | −7.3% | 49.9% | 171 µM | > 200 µM | –
3 | – | – | – | O=C(NNc1nc(C2C3CC4CC(C3)CC2C4)cs1)c1cc2ccccc2[nH]1 (centres unmarked) [Comp. 54, N′-[4-(2-adamantyl)-1,3-thiazol-2-yl]-1H-indole-2-carbohydrazide] | – | −2.1% | 56.6% | > 200 µM | > 200 µM | –
4 | – | – | – | O=C(NNc1nc(-c2ccc(Cl)cc2)cs1)c1cc2ccccc2[nH]1 [Comp. 55, N′-[4-(4-chlorophenyl)-1,3-thiazol-2-yl]-1H-indole-2-carbohydrazide] | – | −1.1% | 54% | 88.9 µM | 105 µM | –
5 | – | – | – | CC(C)COc1ccc(-c2csc(NNC(=O)c3cc4ccccc4[nH]3)n2)cc1 [Comp. 56, N′-[4-(4-isobutyloxyphenyl)-1,3-thiazol-2-yl]-1H-indole-2-carbohydrazide] | – | −0.6% | 50.8% | 111 µM | > 200 µM | –
6 | – | – | – | N#Cc1ccc(-c2csc(NNC(=O)c3cc4ccccc4[nH]3)n2)cc1 [Comp. 57, N′-[4-(4-cyanophenyl)-1,3-thiazol-2-yl]-1H-indole-2-carbohydrazide] | – | 2.7% | 49.3% | > 200 µM | > 200 µM | –
7 | – | – | – | O=C(NNc1nc(-c2ccc(-c3ccccc3)cc2)cs1)c1cc2ccccc2[nH]1 [Comp. 58, N′-[4-(1,1′-biphenyl-4-yl)-1,3-thiazol-2-yl]-1H-indole-2-carbohydrazide] | – | 54.5% | – | 98.9 µM | > 200 µM | Cytotoxic at 5 d
8 | – | – | – | O=C(NNc1nc(-c2ccc3ccccc3c2)cs1)c1cc2ccccc2[nH]1 [Comp. 59, N′-[4-(2-naphthyl)-1,3-thiazol-2-yl]-1H-indole-2-carbohydrazide] | – | 1.9% | – | 130 µM | 138 µM | Cytotoxic at 5 d
9 | – | – | – | O=C(NNc1nc(-c2ccccc2Br)cs1)c1cc2ccccc2[nH]1 [Comp. 60, N′-[4-(2-bromophenyl)-1,3-thiazol-2-yl]-1H-indole-2-carbohydrazide] | – | 0.1% | 41.5% | > 200 µM | > 200 µM | –
10 | – | 13.6 µM | 9.8 µM | Cc1sc(NNC(=O)c2ccc(-c3ccccc3)cc2)nc1-c1ccc([N+](=O)[O-])cc1 [Comp. 61, N′-[5-methyl-4-(4-nitrophenyl)-1,3-thiazol-2-yl]-1,1′-biphenyl-4-carbohydrazide] | 62.6% | 16.6% | – | – | – | –
11 | – | > 200 µM | 112 µM | COc1ccc(C(=O)NNc2nc(C3C4CC5CC(C4)CC3C5)cs2)cc1 (centres unmarked) [Comp. 65, N′-[4-(2-adamantyl)-1,3-thiazol-2-yl]-4-mathoxybenzohydrazide] | 42.1% | 39.4% | – | – | – | –
12 | – | 2.7 µM | 4.1 µM | O=C(NNc1nc2c(s1)Cc1ccccc1-2)c1ccc(C(F)(F)F)cc1 [Comp. 66, N′-8H-indeno[1,2-d][1,3]thiazol-2-yl-4-(trifluoromethyl)benzohydrazide] | 53.9% | −4.6% | – | – | – | –
13 | – | 28.7 µM | 19.7 µM | N#Cc1ccc(-c2csc(NNC(=O)c3cccc(F)c3)n2)cc1 [Comp. 67, N′-[4-(4-cyanophenyl)-1,3-thiazol-2-yl]-3-fluorobenzohydrazide] | – | 19.8% | – | – | – | Cytotoxic at 5 d
14 | – | 162 µM | 69.1 µM | O=C(NNc1nc(-c2ccc(Cl)cc2)cs1)C1CCCCC1 [Comp. 68, N′-[4-(4-chlorophenyl)-1,3-thiazol-2-yl]cyclohexanecarbohydrazide] | 46.4% | −2.8% | – | – | – | –

Row | SMILES | Kd (tau construct K18) | DC50 (tau construct K19; [2]) | IC50 (tau construct K19; [3]) | inhibition at 10 µM (N2a/K18ΔK280 cells; [1]) | LDH (uninduced N2A cells) | inhibition at 10 µM (N2a/K18ΔK280 cells) | IC50 (tau construct K19) | DC50 (tau construct K19; [4]) | Inhibition in cells (result in words: cytotoxicity) (N2a/K18ΔK280 cells; N2a/K18ΔK280 cells, 5 days)
15 | Cc1nc(NNC(=O)c2ccc3[nH]cnc3c2)sc1-c1ccc(Br)cc1 [Comp. 62, N′-[5-(4-bromophenyl)-4-methyl-1,3-thiazol-2-yl]-1H-benzimidazole-5-carbohydrazide] | – | 38.1 µM | 33.5 µM | – | −2.8% | 68.3% | – | – | –
16 | Cc1nc(NNC(=O)c2ccc(F)cc2)sc1-c1ccc(Br)cc1 [Comp. 63, N′-[5-(4-bromophenyl)-4-methyl-1,3-thiazol-2-yl]-4-fluorobenzohydrazide] | – | 15.9 µM | 13.6 µM | – | 1.2% | 50% | – | – | –
